From US6380387B1, “4-Pyrimidinyl-n-acyl-l phenylalanines” (Hoffmann-La Roche Inc., priority 1999, dated 2002)

Columns and labels:
alpha4-beta7 = target: T1, alpha4-beta7 (Homo sapiens, UniProt P13612+P26010); test: Alpha4-Beta7 Assay (MadCAM/RPMI 8866 cell adhesion); assay type: cell-based; settings: calcein labeled RPMI 8866 cells adhering to immobilized MadCAM
T1 construct: Sufficient RPMI 8866 cells were removed from stock for assay; endogenous in cells; host or cells: RPMI 8866 cells
T1 sequence (P13612 34-1032): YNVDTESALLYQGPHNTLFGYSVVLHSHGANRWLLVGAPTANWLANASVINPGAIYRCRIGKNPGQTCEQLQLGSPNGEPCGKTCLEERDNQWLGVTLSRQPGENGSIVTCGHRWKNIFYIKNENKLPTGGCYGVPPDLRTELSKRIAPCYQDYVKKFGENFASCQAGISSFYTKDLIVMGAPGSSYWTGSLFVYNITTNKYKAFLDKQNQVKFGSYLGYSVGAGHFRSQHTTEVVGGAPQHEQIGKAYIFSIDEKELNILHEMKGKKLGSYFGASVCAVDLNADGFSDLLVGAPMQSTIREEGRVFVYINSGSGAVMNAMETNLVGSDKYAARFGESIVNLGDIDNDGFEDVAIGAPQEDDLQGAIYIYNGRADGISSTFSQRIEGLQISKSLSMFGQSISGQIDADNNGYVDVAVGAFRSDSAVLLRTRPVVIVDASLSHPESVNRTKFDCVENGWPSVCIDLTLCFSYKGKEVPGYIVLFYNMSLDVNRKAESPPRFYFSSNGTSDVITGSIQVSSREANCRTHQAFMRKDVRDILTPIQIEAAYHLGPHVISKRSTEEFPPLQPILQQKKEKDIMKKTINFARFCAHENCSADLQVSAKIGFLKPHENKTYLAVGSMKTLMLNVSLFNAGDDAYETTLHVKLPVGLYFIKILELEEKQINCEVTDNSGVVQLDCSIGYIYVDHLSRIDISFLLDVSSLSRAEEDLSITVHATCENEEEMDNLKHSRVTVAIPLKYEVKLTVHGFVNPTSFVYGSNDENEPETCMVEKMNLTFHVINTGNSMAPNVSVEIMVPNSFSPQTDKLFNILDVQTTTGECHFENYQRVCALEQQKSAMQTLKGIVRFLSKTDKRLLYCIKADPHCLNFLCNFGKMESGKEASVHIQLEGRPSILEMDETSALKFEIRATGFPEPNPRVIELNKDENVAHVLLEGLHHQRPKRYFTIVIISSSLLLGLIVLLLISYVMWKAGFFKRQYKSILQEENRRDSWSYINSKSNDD
T1 sequence (P26010 20-798): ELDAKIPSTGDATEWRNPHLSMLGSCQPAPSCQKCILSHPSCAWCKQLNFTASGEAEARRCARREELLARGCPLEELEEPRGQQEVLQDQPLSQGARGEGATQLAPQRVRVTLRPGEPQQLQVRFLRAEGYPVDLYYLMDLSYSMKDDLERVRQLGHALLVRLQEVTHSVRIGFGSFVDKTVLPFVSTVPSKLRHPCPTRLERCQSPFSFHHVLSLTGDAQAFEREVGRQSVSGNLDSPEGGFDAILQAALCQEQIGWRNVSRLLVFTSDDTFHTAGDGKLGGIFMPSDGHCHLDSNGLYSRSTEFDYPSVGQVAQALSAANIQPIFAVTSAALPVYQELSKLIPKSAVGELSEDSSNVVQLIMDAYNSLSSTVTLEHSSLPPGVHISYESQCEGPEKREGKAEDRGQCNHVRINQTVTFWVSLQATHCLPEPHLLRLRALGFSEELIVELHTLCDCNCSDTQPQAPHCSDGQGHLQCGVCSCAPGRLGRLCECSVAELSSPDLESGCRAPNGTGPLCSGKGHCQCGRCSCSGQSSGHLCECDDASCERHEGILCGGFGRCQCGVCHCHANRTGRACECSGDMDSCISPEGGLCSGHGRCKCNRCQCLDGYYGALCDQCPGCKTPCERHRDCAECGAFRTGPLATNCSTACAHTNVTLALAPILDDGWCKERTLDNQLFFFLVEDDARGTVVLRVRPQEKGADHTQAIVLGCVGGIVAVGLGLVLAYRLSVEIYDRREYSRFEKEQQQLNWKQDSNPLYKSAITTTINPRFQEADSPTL
Procedure: Alpha4-Beta7 Assay Protocol
Two weeks to one day prior to the assay, Nunc high-binding F96 Maxisorp immuno plates, #442404 or #439454, were coated with 25 ng/well (0.25 μg/ml) MadCAM in a volume of 100 μl/well. The plates were covered with sealer and wrapped in saran wrap followed by incubation in the refrigerator for at least 24 hours. The coating buffer employed was: 10 mM carbonate/bicarbonate buffer made up from: 0.8 g/L sodium carbonate and 1.55 g/L sodium bicarbonate adjusted to pH 9.6 with 1 N HCl. Assay buffers consisted of the following:
Plates were washed 2× with wash buffer and then blocked at room temperature for at least 1 hour with Blocking Buffer. Sealed plates were sometimes blocked overnight in the refrigerator. Plates were then washed with PBS and hand blotted dry. Remaining liquid was aspirated from the wells.
Sufficient RPMI 8866 cells were removed from stock for assay (2×10^6 cells/ml×10 ml/plate×number of plates) and placed in a centrifuge tube. The tubes were filled to volume with PBS and were spun at 200×G for 8 minutes. The buffer was poured off and the cells were resuspended to 10×10^6/ml in PBS and a stock solution of calcein in DMSO (5mg/mL) was added at 51 μl/ml of cell suspension. The suspension was incubated for 30 minutes at 37° C. in dark. The cells were then washed with PBS. The PBS was poured off and the cells resuspended in cell buffer at a concentration of 2×10^6 cells/mL for plating in the assay.
Stock solution of test compounds at 25× first dilution desired in 100% DMSO were prepared. First dilutions for the standard, as well as test compounds, were 1:25 into straight Binding Buffer, while the remaining serial dilutions were into Dilution Buffer (Binding Buffer/4% DMSO). Stock concentrations and dilutions of compounds for screening were determined by anticipated activity.
For the assay, 129 μl Binding Buffer was plated into first row of wells and 100 μl Dilution Buffer was plated into remaining wells. A 5.44 μl aliquot of each compound was pipetted into appropriate, labeled wells, in triplicate. The compounds were next diluted down the plate (34 μl+100 μl=>4-fold dilution). For controls, 100 μl of Dilution Buffer 100 μl Cell Buffer were plated into the nonspecific background wells (no cells, no compound) and 100 μl Dilution Buffer+100 μl cells were plated into the total binding wells (no compound=100% binding). Labeled cells at 2×10^6 cells/ml, 100 μl/well (=2×10^5 cells/well) were added to each well containing compound. The plates were sealed and incubated in the dark for 45 minutes at room temperature. Following incubation, unbound cells were removed by adding 150 μl PBS/well. The plates were inverted, blotted onto paper towels and washed by gently adding 200 μl PBS to wells and blotting again. Remaining buffer was carefully aspirated from the wells. A final 100 μl PBS was added to each well.
The plates were then read for fluorescence intensity on a Cytofluor 2300 (Millipore) fluorecence measurement system (excitation=485 nm, emission=530 nm). IC50s of each compound were determined by linear regression analysis.

Compound	IC50 (alpha4-beta7) [µM]	melting point [°C]
Cn1c(C(F)(F)F)c(-c2ccc(C[C@H](NC(=O)c3c(Cl)cccc3Cl)C(=O)O)cc2)c(=O)n(C)c1=O [Example 21, N-[1-(2,6-dichlorophenyl)carbonyl]-4-(1,3-dimethyl-2,4-dioxo-6-(trifluoromethyl)-5-pyrimidinyl)-L-phenylalanine]	< 10	125 to 128
Cc1c(-c2ccc(C[C@H](NC(=O)c3c(F)cccc3C(F)(F)F)C(=O)O)cc2)c(=O)n(C)c(=O)n1C [Example 13, N-[(2-fluoro-6-(trifluoromethyl)phenyl)carbonyl]-4-(1,3,6-trimethyl-2,4-dioxo-5-pyrimidinyl)-L-phenylalanine]	< 10	218 to 220
CCc1cccc(Cl)c1C(=O)N[C@@H](Cc1ccc(-c2c(C)n(C)c(=O)n(C)c2=O)cc1)C(=O)O [Example 15, N-[(2-chloro-6-ethylphenyl)carbonyl]-4-(1,3,6-trimethyl-2,4-dioxo-5-pyrimidinyl)-L-phenylalanine]	< 10	187 to 190
Cc1cccc(Cl)c1C(=O)N[C@@H](Cc1ccc(-c2c(C)n(C)c(=O)n(C)c2=O)cc1)C(=O)O [Example 9, N-[(2-chloro-6-methylphenyl)carbonyl]-4-(1,3,6-trimethyl-2,4-dioxo-5-pyrimidinyl)-L-phenylalanine]	< 0.1	
CCc1cccc(C)c1C(=O)N[C@@H](Cc1ccc(-c2c(C)n(C)c(=O)n(C)c2=O)cc1)C(=O)O [Example 10, N-[(2-ethyl-6-methylphenyl)carbonyl]-4-(1,3,6-trimethyl-2,4-dioxo-5-pyrimidinyl)-L-phenylalanine]	< 10	127 to 133
CCn1c(C)c(-c2ccc(C[C@H](NC(=O)c3c(C)cccc3Cl)C(=O)O)cc2)c(=O)n(CC)c1=O [Example 19, N-[(2-chloro-6-methylphenyl)carbonyl]-4-(1,3-diethyl-6-methyl-2,4-dioxo-5-pyrimidinyl)-L-phenylalanine]	< 10	
Cc1c(-c2ccc(C[C@H](NC(=O)c3c(C(C)C)cccc3C(C)C)C(=O)O)cc2)c(=O)n(C)c(=O)n1C [Example 14, N-[[2,6-di-(2-methylethyl)phenyl]carbonyl]-4-(1,3,6-trimethyl-2,4-dioxo-5-pyrimidinyl)-L-phenylalanine]	< 5	

The remaining lines, values ahead:

IC50 (alpha4-beta7) [µM]	melting point [°C]	Compound
< 10		Cc1cc(C[C@H](NC(=O)c2c(Cl)cccc2Cl)C(=O)O)ccc1-c1cn(C)c(=O)n(C)c1=O [Example 25, N-[(2,6-dichlorophenyl)carbonyl]-4-(1,3-dimethyl-2,4-dioxo-5-pyrimidinyl)-3-methyl-L-phenylalanine]
< 0.1		Cc1c(-c2ccc(C[C@H](NC(=O)c3c(F)cccc3F)C(=O)O)cc2)c(=O)n(C)c(=O)n1C [Example 12, N-[(2,6-difluorophenyl)carbonyl]-4-(1,3,6-trimethyl-2,4-dioxo-5-pyrimidinyl)-L-phenylalanine]
< 10	109 to 111	Cc1cc(C[C@H](NC(=O)c2c(C)cccc2Cl)C(=O)O)ccc1-c1cn(C)c(=O)n(C)c1=O [Example 24, N-[(2-chloro-6-methylphenyl)carbonyl]-4-(1,3-dimethyl-2,4-dioxo-5-pyrimidinyl)-3-methyl-L-phenylalanine]
< 0.1		COCCC1(C(=O)N[C@@H](Cc2ccc(-c3c(C)n(C)c(=O)n(C)c3=O)cc2)C(=O)O)CCCC1 [Example 7, N-[[1-(2-methoxyethyl)cyclopentyl]carbonyl]-4-(1,3,6-trimethyl-2,4-dioxo-5-pyrimidinyl)-L-phenylalanine]
< 5		Cc1cccc(C(C)C)c1C(=O)N[C@@H](Cc1ccc(-c2c(C)n(C)c(=O)n(C)c2=O)cc1)C(=O)O [Example 11, N-[[2-(2-methylethyl)-6-methylphenyl]carbonyl]-4-(1,3,6-trimethyl-2,4-dioxo-5-pyrimidinyl)-L-phenylalanine]
< 10		CCOC(=O)[C@H](Cc1ccc(-c2c(C)n(C)c(=O)n(C)c2=O)cc1)NC(=O)c1c(Cl)cccc1Cl [Example 27, N-[(2,6-dichlorophenyl)carbonyl]-4-(1,3,6-trimethyl-2,4-dioxo-5-pyrimidinyl)-L-phenylalanine ethyl ester]
< 0.1		CCn1c(C)c(-c2ccc(C[C@H](NC(=O)c3c(Cl)cccc3Cl)C(=O)O)cc2)c(=O)n(CC)c1=O [Example 18, N-[(2,6-dichlorophenyl)carbonyl]-4-(1,3-diethyl-6-methyl-2,4-dioxo-5-pyrimidinyl)-L-phenylalanine]
< 0.1		Cc1c(-c2ccc(C[C@H](NC(=O)c3c(Cl)cccc3Cl)C(=O)O)cc2)c(=O)n(C)c(=O)n1C [Example 6, N-[(2,6-dichlorophenyl)carbonyl]-4-(1,3,6-trimethyl-2,4-dioxo-5-pyrimidinyl)-L-phenylalanine]
< 10		CCn1c(C)c(-c2ccc(C[C@H](NC(=O)C3(CCOC)CCCC3)C(=O)O)cc2)c(=O)n(CC)c1=O [Example 20, 4-(1,3-diethyl-6-methyl-2,4-dioxo-5-pyrimidinyl)-N-[[1-(2-methoxyethyl)cyclopentyl]carbonyl]-L-phenylalanine]
< 10		Cc1cc(C[C@H](NC(=O)c2c(Cl)cccc2Cl)C(=O)O)ccc1-c1c(C)n(C)c(=O)n(C)c1=O [Example 26, N-[(2,6-dichlorophenyl)carbonyl]-4-(1,3,6-trimethyl-2,4-dioxo-5-pyrimidinyl)-3-methyl-L-phenylalanine]
